From patent US11897862B2 (Gilead Sciences, Inc., priority 2022, dated 2024)

Columns and labels:
[1] = molecular target: T1, IKZF1 (Homo sapiens, UniProt Q13422+Q96SW2); experiment: HEK293 HiBiT in vitro degradation of IKZF1; type: cell-based; conditions: for Dmax: HEK293, HEK293 HiBiT; for DC50: 18-24 hr incubation, normalized to DMSO control, read-out: IKZF1 EC50
T1 construct: expressed in transfected cells
In short: (§1)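 Degradation was scored as loss of HiBiT signal from C-terminally tagged IKZF1, IKZF2 or SALL4 in doxycycline-induced Flp-In T-REx HEK293 cells after overnight (18-24 h) compound treatment. EC50 and Dmax were derived from the luminescence.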

[2] = molecular target: IKZF2 (Homo sapiens, UniProt Q96SW2+Q9UKS7); experiment: HEK293 HiBiT in vitro degradation of IKZF2; type: cell-based; design: expressed in transfected cells; conditions: for Dmax: HEK293, HEK293 HiBiT; for Dmax / IKZF2 Dmax: maximum degradation at the highest concentration tested; for DC50 / IKZF2 Dmax: HEK293 HiBiT; for DC50: 18-24 hr incubation, normalized to DMSO control, read-out: IKZF2 EC50
In short: as §1

[3] = maximum degradation at the highest concentration tested

T1 sequence (Q13422 whole entry): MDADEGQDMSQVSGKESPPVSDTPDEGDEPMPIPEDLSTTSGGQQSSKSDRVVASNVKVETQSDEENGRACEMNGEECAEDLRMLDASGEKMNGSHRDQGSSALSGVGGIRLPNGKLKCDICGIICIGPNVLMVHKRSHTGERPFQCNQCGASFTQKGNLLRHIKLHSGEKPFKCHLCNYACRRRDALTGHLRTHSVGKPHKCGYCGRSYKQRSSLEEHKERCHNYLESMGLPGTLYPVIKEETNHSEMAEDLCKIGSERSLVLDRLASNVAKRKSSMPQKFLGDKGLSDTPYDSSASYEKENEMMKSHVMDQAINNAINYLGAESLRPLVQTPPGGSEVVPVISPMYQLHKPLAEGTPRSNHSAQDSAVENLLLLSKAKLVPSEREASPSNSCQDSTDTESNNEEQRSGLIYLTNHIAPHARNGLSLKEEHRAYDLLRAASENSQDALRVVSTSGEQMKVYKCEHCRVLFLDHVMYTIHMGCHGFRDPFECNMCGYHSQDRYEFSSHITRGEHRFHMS
T1 sequence (Q96SW2 whole entry): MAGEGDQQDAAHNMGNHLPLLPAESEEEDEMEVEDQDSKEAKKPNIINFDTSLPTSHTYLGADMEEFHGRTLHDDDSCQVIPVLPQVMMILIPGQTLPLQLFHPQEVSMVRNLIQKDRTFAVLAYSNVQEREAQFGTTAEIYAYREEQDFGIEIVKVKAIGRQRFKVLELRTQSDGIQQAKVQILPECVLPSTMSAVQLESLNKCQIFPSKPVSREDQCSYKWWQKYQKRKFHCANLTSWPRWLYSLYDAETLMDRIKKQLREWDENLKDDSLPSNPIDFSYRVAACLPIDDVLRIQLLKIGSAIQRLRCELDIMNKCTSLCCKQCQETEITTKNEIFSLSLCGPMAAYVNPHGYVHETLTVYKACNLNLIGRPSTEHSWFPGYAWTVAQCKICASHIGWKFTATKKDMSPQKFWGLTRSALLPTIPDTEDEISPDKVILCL
T1 sequence (Q16531 whole entry partner): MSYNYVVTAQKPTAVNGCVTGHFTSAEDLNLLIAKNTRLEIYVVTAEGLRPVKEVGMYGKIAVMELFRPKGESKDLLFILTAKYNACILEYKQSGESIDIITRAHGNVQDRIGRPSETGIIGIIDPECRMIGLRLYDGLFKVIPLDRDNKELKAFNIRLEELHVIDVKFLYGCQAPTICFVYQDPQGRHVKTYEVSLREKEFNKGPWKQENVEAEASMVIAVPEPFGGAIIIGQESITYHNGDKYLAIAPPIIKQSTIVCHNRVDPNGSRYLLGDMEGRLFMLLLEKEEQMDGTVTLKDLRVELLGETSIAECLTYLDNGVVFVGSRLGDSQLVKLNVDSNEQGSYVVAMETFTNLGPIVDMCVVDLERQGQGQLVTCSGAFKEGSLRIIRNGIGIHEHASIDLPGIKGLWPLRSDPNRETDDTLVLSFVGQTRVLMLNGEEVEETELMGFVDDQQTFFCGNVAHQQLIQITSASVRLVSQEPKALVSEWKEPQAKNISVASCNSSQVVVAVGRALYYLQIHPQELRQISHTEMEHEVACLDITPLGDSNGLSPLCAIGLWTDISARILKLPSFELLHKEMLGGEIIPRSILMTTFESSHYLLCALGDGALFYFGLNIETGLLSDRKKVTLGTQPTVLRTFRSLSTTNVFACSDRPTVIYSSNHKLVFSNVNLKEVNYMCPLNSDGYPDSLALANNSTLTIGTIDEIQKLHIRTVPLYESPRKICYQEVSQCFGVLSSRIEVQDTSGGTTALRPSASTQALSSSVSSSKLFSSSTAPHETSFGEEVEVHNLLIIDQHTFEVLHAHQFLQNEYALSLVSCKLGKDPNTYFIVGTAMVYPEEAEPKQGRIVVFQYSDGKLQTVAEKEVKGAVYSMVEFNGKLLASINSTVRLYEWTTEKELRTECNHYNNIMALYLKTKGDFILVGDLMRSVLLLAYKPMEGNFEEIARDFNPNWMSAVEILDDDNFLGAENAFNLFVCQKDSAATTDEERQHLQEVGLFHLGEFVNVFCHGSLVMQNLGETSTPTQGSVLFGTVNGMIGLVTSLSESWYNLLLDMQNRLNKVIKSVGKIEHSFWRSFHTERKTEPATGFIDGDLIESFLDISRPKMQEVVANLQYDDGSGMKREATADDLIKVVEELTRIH
IKZF2, sequence (Q9UKS7 1-500 isoform Q9UKS7-2): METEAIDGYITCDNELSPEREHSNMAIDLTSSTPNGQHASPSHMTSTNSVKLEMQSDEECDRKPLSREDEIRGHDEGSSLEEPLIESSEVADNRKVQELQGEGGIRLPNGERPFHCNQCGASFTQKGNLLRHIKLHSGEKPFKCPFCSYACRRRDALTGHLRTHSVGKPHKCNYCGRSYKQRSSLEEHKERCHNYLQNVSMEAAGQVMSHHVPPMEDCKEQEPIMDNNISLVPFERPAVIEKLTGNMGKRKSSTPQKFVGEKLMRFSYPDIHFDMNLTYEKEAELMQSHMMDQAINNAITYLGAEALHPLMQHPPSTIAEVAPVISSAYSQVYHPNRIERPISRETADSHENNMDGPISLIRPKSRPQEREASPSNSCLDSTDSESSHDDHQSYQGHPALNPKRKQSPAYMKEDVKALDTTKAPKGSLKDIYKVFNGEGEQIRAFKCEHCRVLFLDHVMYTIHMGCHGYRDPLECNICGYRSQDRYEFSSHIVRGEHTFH
IKZF2, sequence (Q96SW2 whole entry): as the sequence (Q96SW2 whole entry) above
IKZF2, sequence (Q16531 whole entry partner): as the sequence (Q16531 whole entry partner) above

Structure (SMILES)	Dmax [1, 3] [%]	DC50 ([1]; HEK293 HiBiT) [nM]	Dmax [2] [%]	DC50 [2] [nM]	IKZF2 Dmax [2] [%]	IKZF1 Dmax ([1]; HEK293 HiBiT, maximum degradation at the highest concentration tested) [%]
O=C1CCC(N2Cc3c(ccc(C[C@H]4CCCC[C@@H]4NC4CCCCC4)c3F)C2=O)C(=O)N1 (stereo partly drawn) [Example 88, 3-(5-(((1R,2S)-2-(cyclohexylamino)cyclohexyl)methyl)-4-fluoro-1-oxoisoindolin-2-yl)piperidine-2,6-dione]	38	101	99	1	–	–
CC(N[C@H]1CCCC[C@@H]1Cc1ccc2c(c1)CN(C1CCC(=O)NC1=O)C2=O)C1(C)CC1 (stereo partly shown) [Example 234]	–	> 1000	98	11	–	–
O=C1CCC(N2Cc3c(ccc(C[C@H]4OCCC[C@@H]4NC4CC5(CCCCC5)C4)c3F)C2=O)C(=O)N1 (stereo partly shown) [Example 158]	50	72	91	11	–	–
O=C1CCC(N2Cc3cc(C[C@H]4CCCC[C@@H]4NC4CC5CCC5C4)ccc3C2=O)C(=O)N1 (stereo partly shown) [Example 132]	45	66	97	4	–	–
O=C1CCC(N2Cc3cc(C[C@H]4CCCC[C@@H]4NC4CCC(c5ccccn5)CC4)ccc3C2=O)C(=O)N1 (stereo partly shown) [Example 379]	62	44	96	3	–	–
O=C1CCC(N2Cc3cc(C[C@H]4CCCC[C@@H]4NC4CCCCC4(F)F)ccc3C2=O)C(=O)N1 (stereo partly shown) [Example 183]	–	> 1000	–	91	81	–
Cn1cc(CN[C@H]2CCCC[C@@H]2Cc2ccc3c(c2)CN(C2CCC(=O)NC2=O)C3=O)cn1 (stereo partly drawn) [Example 42, 3-(5-(((1R,2S)-2-(((1-methyl-1H-pyrazol-4-yl)methyl)amino)cyclohexyl)methyl)-1-oxoisoindolin-2-yl)piperidine-2,6-dione]	–	> 1000	78	126	–	–
COCC1CCC(N[C@H]2CCCO[C@@H]2Cc2ccc3c(c2F)CN(C2CCC(=O)NC2=O)C3=O)CC1 (single isomer, unassigned) [Example 264]	–	> 1000	96	6	–	–
O=C1CCC(N2Cc3cc(C[C@H]4CCCC[C@@H]4NC4COC4)ccc3C2=O)C(=O)N1 (stereo partly shown) [Example 72]	–	> 1000	83	35	–	–
O=C1CCC(N2Cc3cc(C[C@H]4CCCC[C@@H]4NCc4cccnc4F)ccc3C2=O)C(=O)N1 (stereo partly shown) [Example 62]	–	> 1000	79	56	–	–
O=C1CCC(N2Cc3cc(C[C@H]4CCCC[C@@H]4NC4CC5CCC(C4)O5)ccc3C2=O)C(=O)N1 (stereo partly shown) [Example 112]	30	56	97	3	–	–
O=C1CCC(N2Cc3cc(C[C@H]4CCCC[C@@H]4NCC4CCOC4)ccc3C2=O)C(=O)N1 (stereo partly shown) [Example 69]	–	> 1000	91	19	–	–
O=C1CCC(N2Cc3c(ccc(C[C@H]4OCCC[C@@H]4NC4CCC(C(F)F)CC4)c3F)C2=O)C(=O)N1 (single isomer, unassigned) [Example 282]	–	> 1000	95	7	–	–
O=C1CCC(N2Cc3cc(C[C@H]4CCCC[C@@H]4NCc4cnccn4)ccc3C2=O)C(=O)N1 (stereo partly drawn) [Example 59, 3-(1-oxo-5-(((1R,2S)-2-((pyrazin-2-ylmethyl)amino)cyclohexyl)methyl)isoindolin-2-yl)piperidine-2,6-dione]	–	> 1000	77	75	–	–
N#Cc1ccc(CN[C@H]2CCCC[C@@H]2Cc2ccc3c(c2)CN(C2CCC(=O)NC2=O)C3=O)cc1 (stereo partly drawn) [Example 20, 4-((((1S,2R)-2-((2-(2,6-dioxopiperidin-3-yl)-1-oxoisoindolin-5-yl)methyl)cyclohexyl)amino)methyl)benzonitrile]	35	99	94	19	–	–
O=C1CCC(N2Cc3cc(C[C@H]4CCCC[C@@H]4NC4CCC5(CCO5)CC4)ccc3C2=O)C(=O)N1 (stereo partly shown) [Example 172]	–	203	–	19	98	28
